The supplement of paper PMC11061612

What was measured:
Experiment in all cases: Bliss excess, mean over the matrix (fraction); higher = more synergy
[1] = tested on: 639-V (Bladder Carcinoma)
Outline: (§1)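 Cell lines in DMEM/F12 or RPMI with 10% FBS were plated in 1536-well plates, held 24 hours at 37°C, 5% CO2, then given two-drug dose matrices for 72 hours (DMSO typically 0.2%). Viability was read by CellTiter-Glo 2.0 luminescence and scaled as inhibition from 0 (vehicle wells) to 1 (blank wells). Combination Emax is the second-highest inhibition in the matrix; Bliss excess is observed combination effect minus expected EA + EB − EA·EB, EA and EB being single-agent effects.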

[2] = tested on: EN (Endometrial Carcinoma)
Outline: as §1

[3] = tested on: HCC-15 (Squamous Cell Lung Carcinoma)
Outline: as §1

[4] = tested on: KYSE-410 (Esophageal Squamous Cell Carcinoma)
Outline: as §1

[5] = tested on: LB771-HNC (Head and Neck Carcinoma)
Outline: as §1

[6] = tested on: LU-139 (Small Cell Lung Carcinoma)
Outline: as §1

[7] = tested on: LoVo (Colorectal Carcinoma)
Outline: as §1

[8] = tested on: MHH-PREB-1 (B-Cell Non-Hodgkin's Lymphoma)
Outline: as §1

[9] = tested on: NB14 (Neuroblastoma)
Outline: as §1

[10] = tested on: NCI-H2795 (Mesothelioma)
Outline: as §1

[11] = tested on: NCI-H28 (Mesothelioma)
Outline: as §1

[12] = tested on: NCI-H747 (Colorectal Carcinoma)
Outline: as §1

[13] = tested on: OC-314 (Ovarian Carcinoma)
Outline: as §1

[14] = tested on: RKO (Colorectal Carcinoma)
Outline: as §1

[15] = tested on: SH-4 (Melanoma)
Outline: as §1

[16] = tested on: SW1271 (Small Cell Lung Carcinoma)
Outline: as §1

[17] = tested on: SW626 (Colorectal Carcinoma)
Outline: as §1

[18] = tested on: TE-4 (Esophageal Squamous Cell Carcinoma)
Outline: as §1

[19] = tested on: UMC-11 (Other Solid Carcinomas)
Outline: as §1

[20] = tested on: CTB-1 (B-Cell Non-Hodgkin's Lymphoma)
Outline: as §1

Compound	Bliss excess [1]	Bliss excess [2]	Bliss excess [3]	Bliss excess [4]	Bliss excess [5]	Bliss excess [6]	Bliss excess [7]	Bliss excess [8]	Bliss excess [9]	Bliss excess [10]	Bliss excess [11]	Bliss excess [12]	Bliss excess [13]	Bliss excess [14]	Bliss excess [15]	Bliss excess [16]	Bliss excess [17]	Bliss excess [18]	Bliss excess [19]	Bliss excess [20]
C[C@@H](c1ccc2nccn2c1)n1nnc2ncc(-c3cnn(C)c3)nc21 [Savolitinib] + CC1(C)CCC(CN2CCN(c3ccc(C(=O)NS(=O)(=O)c4ccc(NCC5CCOCC5)c([N+](=O)[O-])c4)c(Oc4cnc5[nH]ccc5c4)c3)CC2)=C(c2ccc(Cl)cc2)C1 [Venetoclax] (first compound max 1 µM, 7x7, partner max 1 µM)	-0.112	-0.0643	-0.0229	-0.0726	-0.0912	-0.0256	-0.0394	-0.0286	-0.0082	0.0032	-0.0481	-0.0817	-0.0046	-0.05	-0.0535	-0.0436	-0.066	-0.009	-0.0303	
CC(=O)c1c(C)c2cnc(Nc3ccc(N4CCNCC4)cn3)nc2n(C2CCCC2)c1=O [Palbociclib] + Cn1cnc2c(F)c(Nc3ccc(Br)cc3Cl)c(C(=O)NOCCO)cc21 [Selumetinib] (first compound max 10 µM, 7x7, partner max 10 µM)	-0.0833	-0.0205	-0.0069	0.0141	-0.0893	0.0109	0.0093	-0.0401	0.0461	-0.0173	-0.0508	-0.0022	0.0141	0.082	0.0333	-0.0417	-0.057	-0.0115	0.079	
COc1nnc2ccc(N3CCC(c4ccc(OCCN5CCN(C)C(=O)[C@H]5C)cc4)CC3)nn12 [AZD5153] + C[C@@H]1COCCN1C2=NC(=NC(=C2)C3(CC3)[S@](=N)(=O)C)C4=C5C=CNC5=NC=C4 [AZD6738] (first compound max 1 µM, 7x7, partner max 10 µM)	0.0933	0.0191	0.069	0.041	0.0467	0.01	0.0603	0.0605	-0.043	0.0037	0.0141	0.0079	0.0111	-0.0442	-0.0438	-0.0204	0.054	0.0983	0.0169	
NC1(C(=O)N[C@@H](CCO)c2ccc(Cl)cc2)CCN(c2ncnc3[nH]ccc23)CC1 [Capivasertib] + Cn1cnc2c(F)c(Nc3ccc(Br)cc3Cl)c(C(=O)NOCCO)cc21 [Selumetinib] (first compound max 10 µM, 7x7, partner max 10 µM)	-0.0183	0.0288	0.0366	0.0521	-0.0595	-0.0165	-0.004	-0.0067	-0.0654	0.0097	-0.0231	-0.0187	0.0668	0.0463	-0.0106	0.0312	0.0124	0.102	0.0032	
NC1(C(=O)N[C@@H](CCO)c2ccc(Cl)cc2)CCN(c2ncnc3[nH]ccc23)CC1 [Capivasertib] + C[C@@H]1COCCN1C2=NC(=NC(=C2)C3(CC3)[S@](=N)(=O)C)C4=C5C=CNC5=NC=C4 [AZD6738] (first compound max 10 µM, 7x7, partner max 10 µM)	-0.0134	-0.039	-0.0459	-0.0369	-0.0503	-0.0083	-0.0575	-0.0486	-0.032	-0.0197	-0.0702	-0.0316	-0.024	-0.0207	-0.036	-0.0657	-0.0622	-0.0349	0.0252	
CN(C)CCCOc1ccc(-c2ccc3ncc4c(c3c2)n(C2CCOCC2)c(=O)n4C)cn1 [AZD0156] + O=C(c1cc(Cc2n[nH]c(=O)c3ccccc23)ccc1F)N1CCN(C(=O)C2CC2)CC1 [Olaparib] (first compound max 3 µM, partner max 3 µM)	0.0535	-0.0292	0.136	0.0007	0.033	0.0352	0.0346	0.0175	0.218	0.0432	-0.0415	-0.0461	0.145	0.0736	0.0237	0.0098	-0.0326	0.0387	0.0204	
Cn1cnc2c(F)c(Nc3ccc(Br)cc3Cl)c(C(=O)NOCCO)cc21 [Selumetinib] + CCN(CCO)CCCOc1ccc2c(Nc3cc(CC(=O)Nc4cccc(F)c4)[nH]n3)ncnc2c1 [AZD2811] (first compound max 10 µM, 7x7, partner max 1 µM)	-0.0438	-0.0862	-0.03	0.0033	-0.0486	0.0062	0.0139	-0.0203	-0.0491	-0.0238	-0.0745	-0.0428	-0.0193	0.088	-0.0324	-0.0324	0.025	-0.0273	-0.0446	
CCc1c2c(nc3ccc(O)cc13)-c1cc3c(c(=O)n1C2)COC(=O)[C@]3(O)CC [SN-38] + O=C(c1cc(Cc2n[nH]c(=O)c3ccccc23)ccc1F)N1CCN(C(=O)C2CC2)CC1 [Olaparib] (first compound max 0.3 µM, 7x7, partner max 10 µM)	0.0917	-0.0377		0.0014	-0.0181	0.0842	0.0556		0.0063	0.08	0.0588	0.0512	0.117	0.0223	0.0956	0.129	0.0064	-0.0103	0.035	0.0546
